We go through 1 compound from ChEMBL document CHEMBL1255312, “Activity of daptomycin against Listeria monocytogenes isolates from cerebrospinal fluid” (Antimicrob Agents Chemother, 2008).

As usually defined, the MIC is the least concentration at which growth counts as inhibited. For orientation: MIC90 means the lowest concentration that inhibits either 90% of growth or 90% of the strains tested, depending on the study.

Each structure is given as a SMILES string. In brackets after ≈: the same amount, converted by molar mass.

Data set [1] deals with Streptococcus pneumoniae. The data set can be described thus: Antimicrobial activity against penicillin-, quinolone-resistant Streptococcus pneumoniae WB4 infected in experimental rabbit meningitis model. Type of data set: functional.
The subject of data set [2] is Staphylococcus aureus. Nature of the data set: Antimicrobial activity against methicillin-susceptible Staphylococcus aureus infected in experimental rabbit meningitis model. Type of data set: functional.
Data set [3] deals with Listeria monocytogenes. The data set can be described thus: Antimicrobial activity against Listeria monocytogenes isolated from cerebrospinal fluid of meningitis patient by Etest method. Type of data set: functional.
In data set [4] the test system is Listeria monocytogenes. Nature of the data set: Antimicrobial activity against Listeria monocytogenes isolated from cerebrospinal fluid of meningitis patient by broth dilution method. It is filed as functional. A general note: Dilution methods test growth across graded concentrations, often in twofold steps.
The subject of data set [5] is Staphylococcus aureus. The data set can be described thus: Antimicrobial activity against Staphylococcus aureus infected in hydrocephalic rabbit administered intraventricularly as single dose. Conditions: Cardiac ventricle.
Data set [6] relates to Homo sapiens. Nature of the data set: Plasma concentration in healthy human at 4 mg/kg, iv QD. Type of data set: ADME, organism-based. Details: dose 4 mg/kg, route intravenous. Conditions: in vivo.

Turning to `CCCCCCCCCC(=O)N[C@@H](Cc1c[nH]c2ccccc12)C(=O)N[C@H](CC(N)=O)C(=O)N[C@@H](CC(=O)O)C(=O)N[C@@H]1C(=O)NCC(=O)N[C@@H](CCCN)C(=O)N[C@@H](CC(=O)O)C(=O)N[C@H](C)C(=O)N[C@@H](CC(=O)O)C(=O)NCC(=O)N[C@H](CO)C(=O)N[C@@H]([C@H](C)CC(=O)O)C(=O)N[C@@H](CC(=O)c2ccccc2N)C(=O)O[C@@H]1C`, the MIC in data set [1] turned out to be 0.06 µg/mL (≈ 0.037 µM); in data set [2], 1 µg/mL (≈ 0.617 µM); in data set [5] it was 0.25 µg/mL (≈ 0.154 µM). The MIC90 in data set [3] and in data set [4] was 4 µg/mL (≈ 2.47 µM) in each case. Also, in data set [3], the MIC95 was 1 µg/mL (≈ 0.617 µM). Moreover, the Cp in data set [6] came out at 60 µg/mL.
